Laboratory results: ChEMBL document CHEMBL3853303, “Nazumazoles D-F, Cyclic Pentapeptides That Inhibit Chymotrypsin, from the Marine Sponge Theonella swinhoei” (J Nat Prod, 2016)

Experiment: Inhibition of bovine alpha-chymotrypsin using Suc-Leu-Leu-Val-Tyr 4-methylcoumaryl-7-amide as substrate assessed as formation of MCA after 1 hr by fluorometric method
Parameters: species or system Bos taurus

| IC50 [nM] | Compound |
| --- | --- |
| 2000 | CCC[C@@H]1NC(=O)[C@@H]2C[C@H](C)CN2C(=O)[C@@H](NC=O)CNC(=O)[C@@H](CC)NC(=O)c2coc(n2)[C@H](C)NC(=O)C1=O |
| 3000 | CCC[C@@H]1NC(=O)[C@@H]2C[C@H](C)CN2C(=O)[C@@H](NC=O)CNC(=O)[C@@H](CO)NC(=O)c2coc(n2)[C@H](C)NC(=O)C1=O |
| 10000 | CC(C)C[C@@H]1NC(=O)[C@@H]2C[C@H](C)CN2C(=O)[C@@H](NC=O)CNC(=O)[C@@H](CO)NC(=O)c2coc(n2)[C@H](C)NC(=O)C1=O |
